Measurements as given in the supplement of paper PMC10331698.
± gives the standard deviation of the averaged measurements.

What was measured:
Assay in all cases: level (log10 ratio to DMSO vehicle control); higher = higher biomarker level / cell amount than vehicle control
[1] = compound: C=CC(F)(F)C(F)(F)C(F)(F)C(F)(F)C(F)(F)C(F)(F)C(F)(F)C(F)(F)C=C [1,8-Divinylperfluorooctane]; conditions: in DMSO
Procedure: (§1)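 BioMAP Diversity Plus panel of 12 human primary cell co-culture systems (3C, 4H, LPS, SAg, BT, BF4T, BE3C, CASM3C, HDF3CGF, KF3CT, MyoF, Mphg). Compounds were added 1 h before stimulation and left for 24 h (MyoF 48 h; BT 72 h for soluble read-outs or 6 d for IgG). Biomarkers were read by ELISA, cytotoxicity by SRB, PBMC viability and proliferation by Alamar Blue. Each well value was divided by the mean of 8 DMSO control wells on the same plate and log10 transformed; duplicate blinded samples were tested at 4 concentrations.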

[2] = compound: O=C(O)C(F)(F)C(F)(F)C(F)(F)OC(F)(C(F)(F)F)C(F)(F)F [Perfluoro-4-isopropoxybutanoic acid]; conditions: in DMSO
Procedure: as §1

[3] = compound: OCCCC(F)(F)C(F)(F)C(F)(F)C(F)(F)C(F)(F)C(F)(F)C(F)(F)F [7:3 Fluorotelomer alcohol]; conditions: 6700 nM; in DMSO
Procedure: as §1

[4] = compound: FC(F)C(F)(F)COCC1CO1 [((2,2,3,3-Tetrafluoropropoxy)methyl)oxirane]; conditions: in DMSO
Procedure: as §1

[5] = compound: C=C(C)C(=O)OCCC(F)(F)C(F)(F)C(F)(F)C(F)(F)C(F)(C(F)(F)F)C(F)(F)F [(Perfluoro-5-methylhexyl)ethyl 2-methylprop-2-enoate]; conditions: in DMSO
Procedure: as §1

[6] = compound: NCC(F)(F)C(F)(F)C(F)(F)C(F)(F)C(F)(F)C(F)(F)C(F)(F)F [1H,1H-Perfluorooctylamine]; conditions: in DMSO
Procedure: as §1

[7] = compound: FC(F)(F)C(F)(F)C(F)(F)C(F)(F)C(F)(F)C(F)(F)C(F)(F)C(F)(F)CCS [2-(Perfluorooctyl)ethanthiol]; conditions: in DMSO
Procedure: as §1

[8] = compound: O=C(O)C(F)(F)C(F)(F)C(F)(F)C(F)(F)C(F)(F)C(F)(F)C(F)(F)C(F)F [9-H-Perfluorononanoic acid]; conditions: in DMSO
Procedure: as §1

Row | Test System | level (log10) ([1]; 6700 nM) | level (log10) ([1]; 20000 nM) | level (log10) ([2]; 6700 nM) | level (log10) ([2]; 20000 nM) | level (log10) ([2]; 60000 nM) | level (log10) [3] | level (log10) ([4]; 6700 nM) | level (log10) ([4]; 20000 nM) | level (log10) ([4]; 60000 nM) | level (log10) ([5]; 6700 nM) | level (log10) ([5]; 20000 nM) | level (log10) ([6]; 6700 nM) | level (log10) ([6]; 20000 nM) | level (log10) ([6]; 60000 nM) | level (log10) ([7]; 6700 nM) | level (log10) ([7]; 20000 nM) | level (log10) ([8]; 6700 nM) | level (log10) ([8]; 20000 nM) | level (log10) ([8]; 60000 nM)
1 | CASM3C:CD87/uPAR | -0.002 ± 0.014 | 0.0175 ± 0.0035 | -0.0225 ± 0.046 | -0.0265 ± 0.052 | 0.003 ± 0.014 | -0.036 ± 0.057 | -0.029 ± 0.016 | -0.0415 ± 0.005 | -0.034 ± 0.014 | -0.0305 ± 0.013 | -0.035 | -0.044 ± 0.083 | -0.0315 ± 0.043 | 0.025 ± 0.047 | -0.0395 ± 0.053 | -0.0205 ± 0.04 | -0.001 ± 0.014 | 0.0045 ± 0.011 | 0.029 ± 0.0057
2 | CASM3C:CD106/VCAM-1 | -0.018 ± 0.0042 | -0.019 ± 0.02 | -0.003 ± 0.0071 | -0.016 ± 0.016 | -0.007 ± 0.021 | -0.012 ± 0.016 | 0.0035 ± 0.022 | -0.012 ± 0.037 | 0.026 ± 0.033 | -0.017 ± 0.014 | -0.0175 ± 0.026 | -0.018 ± 0.058 | -0.007 ± 0.035 | -0.0105 ± 0.015 | -0.0135 ± 0.005 | -0.014 ± 0.0099 | -0.0215 ± 0.012 | -0.019 ± 0.02 | -0.0315 ± 0.005
3 | CASM3C:CD141/Thrombomodulin | 0.0015 ± 0.022 | -0.0145 ± 0.0078 | 0 ± 0.018 | -0.005 ± 0.02 | 0.0135 ± 0.029 | 0 ± 0.0014 | -0.0315 ± 0.012 | 0.0015 ± 0.0092 | 0.0225 ± 0.033 | -0.0185 ± 0.069 | 0.0165 ± 0.098 | -0.017 ± 0.025 | -0.0055 ± 0.005 | 0.031 ± 0.045 | -0.034 ± 0.048 | -0.0065 ± 0.09 | -0.003 ± 0.0099 | -0.0075 ± 0.0035 | 0.0075 ± 0.0021
4 | CASM3C:CD142/Tissue Factor | 0.0035 ± 0.028 | -0.0085 ± 0.005 | -0.018 ± 0.033 | -0.011 ± 0.0042 | 0.0205 ± 0.025 | -0.011 ± 0.016 | 0.0075 ± 0.013 | -0.0005 ± 0.037 | 0.0385 ± 0.083 | -0.037 ± 0.024 | -0.0265 ± 0.056 | -0.018 ± 0.0014 | -0.0135 ± 0.015 | 0.021 ± 0.03 | -0.0015 ± 0.13 | -0.0415 ± 0.07 | -0.0025 ± 0.0078 | -0.012 ± 0.028 | 0.006 ± 0.017
5 | CASM3C:CXCL8/IL-8 | -0.017 ± 0.011 | -0.0145 ± 0.015 | 0.0115 ± 0.019 | 0.0295 ± 0.016 | 0.076 ± 0.017 | -0.0145 ± 0.005 | -0.003 ± 0.0085 | -0.0195 ± 0.028 | 0.0215 ± 0.032 | 0.005 ± 0.037 | 0.019 ± 0.028 | -0.005 ± 0.0057 | -0.022 ± 0.013 | 0.005 ± 0.027 | 0.021 ± 0.047 | 0.034 ± 0.037 | -0.002 ± 0.0057 | -0.0045 ± 0.00071 | 0.0035 ± 0.0035
6 | CASM3C:CXCL9/MIG | -0.013 ± 0.0085 | -0.0115 ± 0.011 | 0.01 ± 0.0014 | 0.0125 ± 0.0021 | 0.044 ± 0.048 | -0.0125 ± 0.0035 | 0.002 ± 0.0085 | -0.009 ± 0.02 | 0.014 ± 0.062 | 0.0335 ± 0.029 | 0.0445 ± 0.046 | -0.014 ± 0.021 | -0.0245 ± 0.0021 | 0.006 ± 0.04 | -0.0025 ± 0.023 | 0.0395 ± 0.0064 | -0.024 ± 0.017 | -0.0155 ± 0.0092 | 0.0205 ± 0.00071
7 | CASM3C:HLA-DR | -0.0125 ± 0.011 | -0.0155 ± 0.0092 | -0.0205 ± 0.029 | -0.0315 ± 0.023 | -0.013 ± 0.04 | 0.008 ± 0.0071 | 0.001 ± 0.0085 | -0.001 ± 0.0099 | 0.0225 ± 0.043 | -0.0175 ± 0.019 | -0.01 ± 0.0085 | -0.01 ± 0.0028 | -0.0085 ± 0.032 | 0.029 ± 0.0042 | -0.0165 ± 0.012 | 0.003 ± 0.0028 | -0.01 ± 0.0071 | -0.0145 ± 0.0092 | 0.0025 ± 0.012
8 | CASM3C:IL-6 | -0.033 ± 0.024 | 0.003 ± 0.055 | -0.0055 ± 0.019 | -0.002 ± 0.025 | 0.0285 ± 0.084 | 0.0015 ± 0.012 | -0.029 ± 0.0071 | -0.017 ± 0.0028 | 0.0175 ± 0.043 | -0.035 ± 0.0042 | 0.0345 ± 0.028 | -0.0245 ± 0.037 | 0.0005 ± 0.057 | 0.035 ± 0.081 | 0.0235 ± 0.09 | 0.0465 ± 0.035 | -0.012 ± 0.0071 | -0.036 ± 0.0042 | -0.0045 ± 0.05
9 | CASM3C:LDLR | 0.008 | 0.0495 ± 0.019 | 0.012 ± 0.0014 | 0.017 ± 0.011 | 0 ± 0.0014 | 0.012 ± 0.0028 | -0.0165 ± 0.021 | -0.02 ± 0.0042 | 0.007 ± 0.024 | -0.032 ± 0.03 | 0.018 ± 0.025 | -0.0295 ± 0.005 | -0.018 ± 0.023 | 0.007 ± 0.0042 | -0.025 ± 0.04 | -0.0505 ± 0.0092 | -0.003 ± 0.018 | -0.005 ± 0.0042 | 0.009 ± 0.024
10 | CASM3C:M-CSF | -0.0375 ± 0.011 | -0.0235 ± 0.023 | 0.0165 ± 0.032 | 0.0075 ± 0.039 | 0.0155 ± 0.043 | 0.007 ± 0.0042 | -0.0115 ± 0.021 | -0.029 ± 0.0014 | -0.0025 ± 0.084 | -0.009 ± 0.0085 | 0.0195 ± 0.036 | -0.059 ± 0.027 | -0.0055 ± 0.0078 | 0.0115 ± 0.061 | 0.013 ± 0.0014 | 0.047 ± 0.014 | -0.007 ± 0.0014 | -0.012 ± 0.0028 | 0.0205 ± 0.028
11 | CASM3C:PAI-I | -0.0015 ± 0.00071 | 0.004 ± 0.0028 | 0.007 ± 0.016 | 0.01 ± 0.021 | 0.0075 ± 0.026 | -0.005 ± 0.0014 | -0.0035 ± 0.0021 | -0.001 ± 0.011 | 0.0065 ± 0.011 | -0.004 ± 0.0014 | 0.002 ± 0.0014 | -0.0055 ± 0.012 | 0.0025 ± 0.0064 | -0.0015 ± 0.005 | -0.014 ± 0.017 | 0.0055 ± 0.026 | 0.0135 ± 0.021 | -0.004 ± 0.0042 | 0.0085 ± 0.022
12 | CASM3C:Proliferation | -0.018 ± 0.027 | 0.0305 ± 0.013 | -0.018 ± 0.0099 | -0.037 ± 0.025 | -0.0085 ± 0.057 | 0.052 ± 0.0057 | -0.0215 ± 0.011 | -0.001 ± 0.014 | 0.0145 ± 0.032 | -0.036 ± 0.0014 | -0.054 ± 0.071 | 0.0025 ± 0.012 | 0.005 ± 0.016 | -0.0095 ± 0.0092 | 0.006 ± 0.0071 | -0.0105 ± 0.053 | 0.012 ± 0.011 | -0.016 ± 0.013 | 0.028 ± 0.088
13 | CASM3C:SRB | 0.002 ± 0.0042 | -0.003 ± 0.0014 | 0.0015 ± 0.005 | -0.007 ± 0.0071 | 0.0015 ± 0.012 | 0.006 ± 0.0028 | -0.0005 ± 0.015 | -0.003 ± 0.0042 | 0.0015 ± 0.00071 | -0.0025 ± 0.005 | -0.0095 ± 0.0035 | -0.002 ± 0.0028 | -0.001 ± 0.013 | 0.0035 ± 0.018 | 0.002 ± 0.0085 | 0.0095 ± 0.0064 | 0.0045 ± 0.005 | 0.0035 ± 0.0035 | -0.001 ± 0.0057
14 | CASM3C:Serum Amyloid A | -0.0145 ± 0.0035 | -0.011 ± 0.0085 | -0.0025 ± 0.0078 | -0.0295 ± 0.013 | 0.0165 ± 0.081 | -0.0135 ± 0.028 | -0.004 ± 0.011 | 0.0215 ± 0.0035 | -0.0235 ± 0.0092 | -0.0325 ± 0.021 | 0.025 ± 0.0085 | 0.0345 ± 0.036 | 0.043 ± 0.069 | 0.015 ± 0.061 | -0.0145 ± 0.013 | 0.002 ± 0.047 | -0.0295 ± 0.035 | -0.02 | 0.0435 ± 0.053
15 | HDF3CGF:CCL2/MCP-1 | -0.022 ± 0.0042 | -0.005 ± 0.011 | 0.013 ± 0.0028 | 0.0335 ± 0.019 | 0.0425 ± 0.0021 | -0.0085 ± 0.0092 | -0.0005 ± 0.0078 | -0.001 ± 0.013 | 0.0005 ± 0.0078 | -0.0335 ± 0.0092 | -0.024 ± 0.023 | -0.006 ± 0.016 | -0.0045 ± 0.012 | -0.0165 ± 0.0078 | -0.0505 ± 0.03 | -0.077 ± 0.014 | -0.023 ± 0.028 | -0.0185 ± 0.044 | -0.0415 ± 0.052
